Data: patent EP3144007A1 (priority 2015, dated 2017)
pIC50: −log10 of the molar value. Where “and” joins values, the source holds several entries; their conditions need not be identical. Equal entries are not always repeated. Where a SMILES comes first, the peptide text is derived from it. Bridges are numbered along the chain shown (N, C = ends).

How the values were obtained:
[1] = biological target: TrkB receptor on cultured cerebellar granule neurons
[2] = tested on: cerebellar granule neurons; type: cell-based
[3] = tested on: cerebellar granule neurons

In the case of “BDNF (from UniProt P23560 129-247) (ligand)”, the IC50 [1] was 4.2 nM and 0.06 µg/mL.
`CSCC[C@@H]1NC(=O)CNC(=O)[C@H](CC(N)=O)NC(=O)[C@H](CC(N)=O)NC(=O)[C@H](CCSC)NC(=O)[C@H](Cc2c[nH]cn2)NC(=O)[C@H]([C@@H](C)O)NC(=O)[C@@H]2CCCN2C(=O)[C@H](CC(N)=O)NC(=O)[C@H](CC(=O)O)NC(=O)[C@H](CC(C)C)NC(=O)[C@H](CCC(N)=O)NC(=O)[C@H](CC(C)C)NC(=O)[C@@H](NC(=O)CN)CSSC[C@@H](C(=O)N[C@@H](CC(N)=O)C(=O)N[C@@H](CC(N)=O)C(=O)NCC(=O)O)NC(=O)[C@H](Cc2c[nH]cn2)NC(=O)[C@H]([C@@H](C)O)NC(=O)[C@@H]2CCCN2C(=O)[C@H](CC(N)=O)NC(=O)[C@H](CC(=O)O)NC(=O)[C@H](CC(C)C)NC(=O)[C@H](CCC(N)=O)NC(=O)[C@H](CC(C)C)NC1=O` [d5 peptide] (H-GCLQLDNPTHMNNGMLQLDNPTHCNNG-OH; disulfide 2-24) was tested, and the “internalization of Hc-TeNT fragment (area occupied by Hc-TeNT)” value [2] was “seems not to affect”, the “percentage of Hc-TeNT in colocalization with TrkB” value [2] was “about 44%” and the “percentage of TrkB in co-localization with Hc-TeNT” value [2] was 51%. For the same compound, the “competition with the Hc-TeNT fragment for binding to cell membrane” value [3] was “capable to compete”, the pIC50 ([3]; 3 h) was 3.97 and the “IC50 (concentration of unlabeled competitor necessary to displace 50% of specifically bound Hc-TeNT)” value ([3]; 3 h) was 317.3 µg/mL.
